Consider 57 compounds from paper PMC12040169 (PLOS Biology, 2025).

A short description of the data set: in vitro. The following applies: human, hela cells, % viability.

In the case of `COc1ccccc1CC(=O)NC(CCSC)c1nnc2ccccn12` (stereo not drawn) [CBK306492], the viability at 28.5 h, 10 µM was 92.1%.

Regarding `O=C1c2ccccc2C(=O)N1CSc1nnc(SCN2C(=O)c3ccccc3C2=O)s1` [CBK263694], the viability at 28.5 h, 10 µM was found to be 96.9%.

In the case of `COc1cccc(CNc2ccc3c4c(cccc24)CC3)c1OC` [CBK269688], the viability at 28.5 h, 10 µM turned out to be 92.5%.

For the compound `O=S(=O)(c1ccc(F)cc1)N1CCN(c2ncnc3scc(-c4ccccc4)c23)CC1` [CBK264864], the viability at 28.5 h, 10 µM stood at 103%.

On to `COc1ccc(-c2cnc3[nH]c(=O)n(CC(C)(C)CO)c3n2)c(OC)c1OC` [CBK064833], for which the viability at 28.5 h, 10 µM turned out to be 91.8%.

Consider `Cc1ccc(S(=O)(=O)N(CC(O)CN2C(=O)NC(C)(C)C2=O)c2ccccc2[N+](=O)[O-])cc1` (stereo not drawn) [CBK263572], for which the viability at 28.5 h, 10 µM worked out at 95.3%.

For `O=C(Nc1ccc2c(c1)OC(F)(F)O2)c1nn(Cc2ccc(-c3csnn3)cc2)c2ccccc12` [CBK047877], the viability at 28.5 h, 10 µM (bulk resorufin, single well) is 86.8%.

As for `Cc1cccc(S(=O)(=O)Nc2cc(OCCN3CCOCC3)c3occc3c2)c1` [CBK067420C], the viability at 28.5 h, 10 µM turned out to be 90.4%.

For the compound `O=C(Cc1ccc([N+](=O)[O-])cc1)N/N=C/c1ccc(O)cc1` [CBK262152], the viability at 28.5 h, 10 µM turned out to be 84.5%.

Regarding `CCOC(=O)c1sc2nccc(N(C)C)c2c1-n1cccc1` [CBK115381], the viability at 28.5 h, 10 µM is 93.4%.

For `C=CCN1C(=O)/C(=C2/Sc3ccc(OC)cc3N2C)S/C1=N\c1cc(C#N)ccc1NCC` [CBK262431], the viability at 28.5 h, 10 µM turned out to be 108%.

Turning to `COC(=O)c1c(NS(=O)(=O)c2cccc(Cl)c2)csc1C` [CBK026678], the viability at 28.5 h, 10 µM worked out at 79.6%.

For `COc1ccc(N2CCN(c3nc(N4CCOCC4)nc(N4CCOCC4)n3)CC2)cc1` [CBK264166], the viability at 28.5 h, 10 µM was found to be 100%.

On to `COc1ccc(-c2nc(NC(=O)Cc3ccccc3OC(F)(F)F)cnc2-c2cccc(C)c2)cc1` [CBK037551], for which the viability at 28.5 h, 10 µM worked out at 107%.

Take `O=c1[nH]nc(-c2cccs2)n1-c1ccncc1` [CBK283868]: the viability at 28.5 h, 10 µM was found to be 93.2%.

Turning to `O=C(O)c1cccc2c1C(=O)N(Cc1ccccc1F)C2` [CBK291172], the viability at 28.5 h, 10 µM turned out to be 86.8%.

As to `COCCC(=O)N1C[C@@H](c2cccc(F)c2)[C@@]2(CCCC(=O)N2)C1` [CBK283450], the viability at 28.5 h, 10 µM was 88.1%.

As to `Cc1cc(C)c2nc(C(F)(F)F)nc(NCCCN3CCOCC3)c2c1` [CBK266753], the viability at 28.5 h, 10 µM amounted to 86.4%.

As to `Cc1cc(C)c(NC(=O)N(CCCO)Cc2ccncc2)c(Cl)c1` [CBK304406], the viability at 28.5 h, 10 µM amounted to 87.3%.

For `O=c1[nH]c(=S)c2c(n1CCc1ccccn1)CCCC2` [CBK023951G], the viability at 28.5 h, 10 µM is 101%.

Consider `CC(Nc1nc(N2CCN(CCO)CC2)nc2ccccc12)c1ccccc1` (stereo not drawn) [CBK269427], for which the viability at 28.5 h, 10 µM came out at 106%.

As to `C=CCN1C(=O)/C(=N\Nc2ccc(S(=O)(=O)O)cc2)C(=O)NC1=S` [CBK261440], for the setting “bulk resorufin, single well”, the viability at 28.5 h, 10 µM is 92%.

Consider `CCc1nc(C)ccc1O` [CBK026535C], for which the viability at 28.5 h, 10 µM was 91%.

Regarding `CC(=O)NC1(c2ccccc2)CCN(C(=O)Nc2ccccc2-c2ccccc2)CC1` [CBK286288], the viability at 28.5 h, 10 µM came to 94.9%.

Turning to `O=C(COc1ccc(Cl)cc1Cl)Nc1ccc(CN2CCCCC2)cc1` [CBK266164], the viability at 28.5 h, 10 µM amounted to 105%.

`COc1cccn(CC(=O)N2CCc3sc(C(=O)N(C)C)cc3C2)c1=O` [CBK307665]: the viability at 28.5 h, 10 µM was 90.5%.

Regarding `O=C(O)C1CCCN(C(=O)COc2cc3oc(=O)cc(-c4ccccc4)c3cc2Cl)C1` (stereo not drawn) [CBK286753], the viability at 28.5 h, 10 µM stood at 90.9%.

As to `CC(C)(C)C1=CC2=NC3(CCC3)C3C[C@@H](O)[C@@H](O)[C@]3(COCc3ccccc3)N2O1` (stereo partly drawn) [CBK303260], the viability at 28.5 h, 10 µM worked out at 99.6%.

As for `OCc1cccc(-c2cncc(NCCc3cccnc3)n2)c1` [CBK037946], the viability at 28.5 h, 10 µM came out at 98.8%.

`CN(C)CCC1CCCCN1C(=O)C1C2CCCCC21` (stereo not drawn) [CBK282055]: the viability at 28.5 h, 10 µM amounted to 98.9%.

In the case of `O=C(Nc1ccncc1)c1cc2cc(OC(F)(F)F)ccc2[nH]1` [CBK107369], the viability at 28.5 h, 10 µM came out at 89.3%.

`c1ccc2c(OCc3nc4ccccc4[nH]3)cccc2c1` [CBK262969]: the viability at 28.5 h, 10 µM is 106%.

As for `N#Cc1ccc(OCC(=O)Nc2ncccn2)cc1` [CBK304578], the viability at 28.5 h, 10 µM was 85.4%.

As to `c1sc(C2CN3CCCC3CO2)nc1C1CCCC1` (stereo not drawn) [CBK304814], the viability at 28.5 h, 10 µM came to 90.4%.

Consider `O=C(Nc1cccc(Cl)c1)N(Cc1ccncc1)CC1CCCO1` (stereo not drawn) [CBK305362], for which the viability at 28.5 h, 10 µM was 93%.

As to `CCc1c(CC)c(OC(=O)C(N)C(C)C)c2ccccc2c1OC` (stereo not drawn) [CBK016484C], the viability at 28.5 h, 10 µM was 93.4%.

Regarding `Fc1ccc(CSc2nnnn2-c2ccc3c(c2)OCO3)cc1` [CBK293927], the viability at 28.5 h, 10 µM was 85.2%.

Consider `CCN1CC(C(=O)Nc2nc3c(s2)CCCCCC3)CC1=O` (stereo not drawn) [CBK281526], for which the viability at 28.5 h, 10 µM amounted to 84.2%.

With `Cc1cccc(C)c1NC(=O)c1c(NC(=O)c2ccco2)sc2c1CCC(C)C2` (stereo not drawn) [CBK265550], the viability at 28.5 h, 10 µM came out at 107%.

Take `Cn1cc(CCN2CCC(C(=O)NC(=O)Nc3ccccc3)CC2)c2ccccc21` [CBK034867]: the viability at 28.5 h, 10 µM came to 83.6%.

For the compound `CCN(CC)C(=O)CN1CCN(c2nccnc2OCC2COc3ccccc3O2)CC1` (stereo not drawn) [CBK082803T], the viability at 28.5 h, 10 µM was 96.5%.

As for `O=C(NC1CC2(CCCC2)Oc2ccccc21)C1CCCO1` (stereo not drawn) [CBK282420], the viability at 28.5 h, 10 µM was determined as 110%.

As for `O=C(NCC1(c2ccccc2)CCCC1)c1ccc(=O)n(CC(=O)N2CCCCC2)c1` [CBK286082], the viability at 28.5 h, 10 µM amounted to 93.5%.

For `CN(C)c1nc(NCc2ccccc2)nc(SCC(=O)Nc2ccc(Cl)c(Cl)c2)n1` [CBK267289], the viability at 28.5 h, 10 µM came to 97%.

Turning to `Cc1nccn1CC(C)C(=O)NCCN(C)C1CCCCC1` (stereo not drawn) [CBK282040], the viability at 28.5 h, 10 µM was 102%.

With `COCCNC(=O)C1CCCCC1C(=O)O` (stereo not drawn) [CBK269135], the viability at 28.5 h, 10 µM stood at 108%.

Consider `OCCCNCC(O)CN1c2ccccc2Sc2ccccc21` (stereo not drawn) [CBK027632G], for which the viability at 28.5 h, 10 µM was found to be 98.4%.

With `Clc1cccc(CN2CCC(N3CCN(c4ccccc4)CC3)CC2)c1` [CBK264690G], the viability at 28.5 h, 10 µM worked out at 98.7%.

Consider `Cc1ccc(O)c(NC(=O)COc2ccc(Cl)cc2)c1` [CBK268670], for which the viability at 28.5 h, 10 µM came out at 108%.

Turning to `COc1cc(/C=N/Nc2nonc2N)cc(OC)c1OC` [CBK025758], the viability at 28.5 h, 10 µM came to 73.2%.

On to `O=C(Nc1nnc(C2=COCCO2)o1)c1cc(Cl)cc(Cl)c1` [CBK287418], for which the viability at 28.5 h, 10 µM is 91.1%.

Take `Cc1cc(=O)c(C#N)c(C)[nH]1` [CBK023326]: the viability at 28.5 h, 10 µM is 92.4%.

Take `N#CC1=C(N)Oc2[nH]nc(-c3ccc4ccccc4c3)c2C1c1cn(CC(N)=O)nc1-c1ccccc1` (stereo not drawn) [CBK266624]: the viability at 28.5 h, 10 µM is 107%.

For `O=C(NC1CCCCCC1)c1ccc(COCC(F)(F)C(F)F)cc1` [CBK059012], the viability at 28.5 h, 10 µM amounted to 114%.

Take `O=C(c1ccc([N+](=O)[O-])cc1)n1nc(-c2cccnc2)nc1NCc1ccc(F)cc1` [CBK268962]: the viability at 28.5 h, 10 µM was 96.6%.

Take `O=C(CO)N1CC2(CCN(CCc3c[nH]c4ccccc34)CC2)c2ccccc21` [CBK131503]: the viability at 28.5 h, 10 µM was 98.5%.

Take `COc1cccc(CN2CC[C@@H]3[C@H](C2)[C@@H](c2ccc(F)cc2)CN3C(=O)c2ccccc2)c1` [CBK286292]: the viability at 28.5 h, 10 µM came out at 107%.
